In US6395286B1, “Cosmetic compositions containing anise extract and retinoids” (Unilever Home & Personal Care USA, division of Conopco, Inc., priority 1999, dated 2002):

Tested on: CRABP-2 expression of fibroblasts
Assay: CRABP-2 protein expression in fibroblasts (Western blot, densitometric scanning)
Assay type: cell-based, Human
Settings: for CRABP-2 levels: 4 h anise pre-treatment, 48 h incubation, +/− SD of triplicates; for As % of control: control as 100%
Experimental: Dried […] seeds (Pimpinella anisum) was purchased from local markets and powdered in a dry grinder. The alcoholic extract of anise seed was prepared by stirring 1 gram of the dry anise seed powder in 10 ml of ethanol from the list of solvents given below for 4 to 24 hrs at room temperature. The extracts were clarified by filtration and centrifugation, to obtain a 10% extract of anise seed in the particular solvent. Human adult fibroblasts obtained from sun-protected inner arm of 25-30 year […] volunteer were used in this. Cells were grown in 1:1 DMEM/Hams F12 media containing 10% FBS, maintained at 37C in a 5% CO2 atmosphere under normal atmospheric oxygen tension. Third passage adult fibroblasts were grown in DMEM media with 10% FBS in 12-well plates at a seeding density of 40,000 cells/ml/well. The cells at 80% confluence were rinsed in serum free and phenol red free (PRF) DMEM media twice. Pre-treatment with anise seed extract for 4 hours was conducted and then dosed with retinoids and was incubated for 48 hours. After the incubation, the wells were washed twice with 1×PBS and the cell monolayer was harvested in 100 μl cell lysis buffer (contains 1×PBS, 1% TritonX, 0.5% sodium deoxycholate, 0.1% SDS containing protease inhibitor (10 mg/ml PMSF in isopropanol, 10 μl/ml). The suspension was spun at 14000 rpm for 10 minutes, the supernatant collected and an aliquot of this supernatant was used for protein quantification. Protein concentration was determined using Pierce protein kit. The remainder of 100 μl supernatant (cell lysate) was denatured in a mixture of 40 μl sample buffer (NOVEX) and 0.5% Beta mercaptoethanol (BME) and by boiling the sample for 5 minutes. Equal amount of protein was then loaded onto 16% Tris-glycine gels for protein analysis by SDS page and Western Immuno-blotting for CRABP-2 protein expression. To measure the levels of CRABP-2 in the fibroblasts prepared as described above, the cell supernatant was re-suspended in 4× sample buffer and 0.5% BME, boiled for 5 minutes and used for western blotting. Equal amounts of protein were loaded onto 16% Tris-glycine gels for CRABP-2 protein analysis by SDS page and Western Immuno-blotting. The gels were transferred to nitrocellulose blots and Western Blotting was carried out using monoclonal antibodies to CRABP-2 according to standard procedures. The CRABP-2 protein band was visualized in the Western Blots using the chemiluminescence system obtained from Santa Cruz Biotechnology (SantaCruz, Calif.). The bands in the film were quantitated by densitometric scanning, the data from triplicate samples were calculated as % of control and expressed in the following tables as % increase over control (with control as 100%) +/−SD of triplicates.

[1] = Example 1: 100 nM retinoids and 0.1 μl of a 10% anise seed extract
[2] = Example 2: 100 nM retinoids and 1.0 μl of a 10% anise seed extract
[3] = Example 3: 500 nM retinoids and 0.1 μl of a 10% anise seed extract
[4] = Example 4: 500 nM retinoids and 1.0 μl of a 10% anise seed extract

Structure (SMILES)	CRABP-2 levels [1]	As % of control [1]	CRABP-2 levels [2]	As % of control [2]	CRABP-2 levels [3]	As % of control [3]	CRABP-2 levels [4]	As % of control [4]
CC1=C(/C=C/C(C)=C/C=C/C(C)=C/CO)C(C)(C)CCC1 [Retinol]	1.36 +/− 0.17	317 +/− 39 % of control	1.36 +/− 0.17	317 +/− 39 % of control	0.66 +/− 0.19	154 +/− 44 % of control	0.66 +/− 0.19	154 +/− 44 % of control
CCCCCCCCCCCCCCCC(=O)OC/C=C(C)/C=C/C=C(C)/C=C/C1=C(C)CCCC1(C)C [Retinyl Palmitate]	1.12 +/− 0.15	262 +/− 37 % of control	1.12 +/− 0.15	262 +/− 37 % of control	0.83 +/− 0.5	193 % of control	0.83 +/− 0.5	193 % of control
CCCCC/C=C\C/C=C\CCCCCCCC(=O)OC/C=C(C)/C=C/C=C(C)/C=C/C1=C(C)CCCC1(C)C [Retinyl linoleate]	1.23 +/− 0.28	286 +/− 65 % of control	1.23 +/− 0.28	286 +/− 65 % of control	0.99 +/− 0.13	231 +/− 30 % of control	0.99 +/− 0.13	231 +/− 30 % of control
CC(=O)OC/C=C(C)/C=C/C=C(C)/C=C/C1=C(C)CCCC1(C)C [Retinyl acetate]	2.38 +/− 0.81	553 % of control	2.38 +/− 0.81	553 % of control	1.02 +/− 0.56	237 % of control	1.02 +/− 0.56	237 % of control
